Tests used:
[1] = biological target: T1, Human M2 (Homo sapiens, UniProt P08172); experiment: M2 cell-based functional assay, calcium mobilization (selectivity); conditions: for Emax at 30 µM: % ACh maximum at 30 μM
T1 construct: expressed in transfected cells; host or cells: CHO-K1
T1 sequence (P08172 1-466): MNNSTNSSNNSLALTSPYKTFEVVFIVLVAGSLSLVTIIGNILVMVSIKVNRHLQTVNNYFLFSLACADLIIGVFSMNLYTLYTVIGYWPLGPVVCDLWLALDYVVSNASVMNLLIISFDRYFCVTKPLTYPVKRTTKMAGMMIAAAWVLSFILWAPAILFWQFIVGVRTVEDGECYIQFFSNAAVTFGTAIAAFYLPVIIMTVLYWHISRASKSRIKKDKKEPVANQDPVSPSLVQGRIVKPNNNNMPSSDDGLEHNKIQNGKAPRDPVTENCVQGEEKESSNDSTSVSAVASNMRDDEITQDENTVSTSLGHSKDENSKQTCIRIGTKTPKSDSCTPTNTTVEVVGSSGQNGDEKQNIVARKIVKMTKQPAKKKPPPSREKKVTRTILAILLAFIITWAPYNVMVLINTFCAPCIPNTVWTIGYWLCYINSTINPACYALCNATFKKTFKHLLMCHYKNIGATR
Protocol: (§1) The high throughput assay was employed to measure receptor-induced mobilization of intracellular calcium to determine compound activity. Test compound was added to cells expressing the muscarinic receptors that were loaded with calcium sensitive fluorescent dye. After a ˜2.5 minute incubation period, a submaximal (EC20) concentration of acetylcholine was added, and the response measured. This kinetic assay allows for simultaneous screening and potency determination of multiple pharmacological modes of action including agonist and potentiator activity. CHO-K1 cells stably expressing muscarinic receptors were plated in growth medium lacking G418 and hygromycin at 15,000 cells/20 μL/well in Greiner 384-well black-walled, tissue culture (TC)-treated, clear-bottom plates (Greiner Bio-One). Cells were incubated overnight at 37° C. and 5% CO2. The next day, calcium assay buffer (Hank's balanced salt solution (HBSS), 20 mM HEPES, 2.5 mM Probenecid, 4.16 mM sodium bicarbonate (Sigma-Aldrich, St. Louis, MO)) was prepared to dilute compounds, agonists, and Fluo-4-acetomethoxyester (Fluo-4-AM), fluorescent calcium indicator dye. Compounds were serially diluted 1:3 into 10 point concentration response curves in DMSO using the Bravo Liquid Handler (Agilent, Santa Clara, CA), transferred to a 384 well daughter plates using an Echo acoustic liquid handler (Beckman Coulter, Indianapolis, Indiana), and diluted in assay Buffer to a 2× final concentration. The agonist plates were prepared using acetylcholine (ACh, Sigma-Aldrich, St. Louis, MO) concentrations for the EC20 and ECMAX responses by diluting in assay buffer to a 5× final concentration. The 2× dye solution (2.3 μM) was prepared by mixing a 2.3 mM Fluo-4-AM stock in DMSO with 10% (w/v) pluronic acid F-127 in a 1:1 ratio in assay buffer. Using a microplate washer (BioTek, Winooski, VT), cells were washed with assay buffer for 3 times to remove medium. After the final wash, 20 μL of assay buffer remained in the cell plates. Immediately, 20 μL of the 2× dye solution (final 1.15 μM) was added to each well of the cell plate using a Multidrop Combi dispenser (Thermo Fisher, Waltham, MA). After cells were incubated with the dye solutions for 45 min at 37° C. in the presence of 5% CO2, the dye solutions were removed and replaced with assay buffer using a microplate washer, leaving 20 μL of assay buffer in the cell plate.
The prepared compound, agonist, and cell plates were placed inside the Functional Drug Screening System uCell (FDSS uCell, Hamamatsu, Japan) to measure the calcium flux. The triple add protocol was used to measure Ca kinetics; Compound, ACh for EC20, and ACh for EC80 adds in an order. Briefly, after establishment of a fluorescence baseline for 2 seconds (excitation, 480 nm; emission, 530 nm), first add occurred by adding 20 μL of test compound to the cells, and the response was measured for 140 seconds. This is followed by second add; 10 μL (5×) of an EC20 concentration of ACh agonist was added to the cells, and the response of the cells was measured for 125 seconds. Immediately, the third add occurred by adding […] (5×) of an EC80 concentration of ACh and the response of the cells was measured for 90 seconds. Acetylcholine-mediated maximum response (ECmax) was measured by adding 1 mM ACh as third add in the control wells. DMSO vehicle was added to the control wells in the first add for assessing ACh EC20, EC80, and ECmax responses. Calcium fluorescence was recorded as fold over basal fluorescence and raw data were normalized to the maximal response to ACh agonist. Agonist activity was analyzed as a concentration-dependent increase in calcium mobilization upon compound addition. Positive allosteric modulator activity was analyzed as a concentration-dependent increase in the EC20 acetylcholine response. Antagonist activity was analyzed as a concentration-dependent decrease in the EC80 acetylcholine response. […]

[2] = biological target: T2, Human M4 (Homo sapiens, UniProt P08173); experiment: M4 cell-based functional assay, calcium mobilization, potentiation of ACh EC20; conditions: for Emax at 30 µM: % ACh maximum at 30 μM; for EC50: CHO-K1 hM4-Gqi5 cells, calcium flux, ACh EC20
T2 construct: expressed in transfected cells
T2 sequence (P08173 1-479): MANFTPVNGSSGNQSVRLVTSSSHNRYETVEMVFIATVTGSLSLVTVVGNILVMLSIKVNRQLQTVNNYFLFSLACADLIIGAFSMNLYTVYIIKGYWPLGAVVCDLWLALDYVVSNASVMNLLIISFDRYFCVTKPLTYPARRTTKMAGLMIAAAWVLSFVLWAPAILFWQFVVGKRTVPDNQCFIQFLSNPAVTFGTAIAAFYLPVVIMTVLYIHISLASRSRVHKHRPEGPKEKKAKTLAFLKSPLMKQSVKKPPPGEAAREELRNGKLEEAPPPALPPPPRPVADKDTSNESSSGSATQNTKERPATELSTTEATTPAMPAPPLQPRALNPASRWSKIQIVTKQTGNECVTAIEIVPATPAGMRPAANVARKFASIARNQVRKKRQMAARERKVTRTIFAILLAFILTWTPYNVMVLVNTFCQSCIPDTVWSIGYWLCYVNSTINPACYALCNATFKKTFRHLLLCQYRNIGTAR
Protocol: Human and rat M4 cDNAs, along with the chimeric G protein Gqi5, were transfected into Chinese hamster ovary (CHO-K1) cells purchased from the American Type Culture Collection using Lipofectamine2000. The transfected cells were subjected to selection antbiotic treatment to generate stable cell lines; G418 sulfate (1 mg/ml) for selecting M4 expressing cells and Hygromycin B (500 μg/mL) for selecting Gqi5 expressing cells. The resulting polyclones were further screened to obtain monoclones of hM4-Gqi5 and rM4-Gqi5 for compound screening assay. Stable monoclone cells were maintained in Ham's F-12 medium containing 10% heat-inactivated fetal bovine serum (FBS), 1× Antibiotic/Antimycotic, 20 mM HEPES, 500 μg/mL G418 sulfate, and 200 μg/mL Hygromycin B in 37° C. humidified incubators in the presence of 5% CO2.
as §1
The prepared compound, agonist, and cell plates were placed inside the Functional Drug Screening System uCell (FDSS uCell, Hamamatsu, Japan) to measure the calcium flux. The triple add protocol was used to measure Ca kinetics; Compound, ACh for EC20, and ACh for EC80 adds in an order. Briefly, after establishment of a fluorescence baseline for 2 seconds (excitation, 480 nm; emission, 530 nm), first add occurred by adding 20 μL of test compound to the cells, and the response was measured for 140 seconds. This is followed by second add; 10 μL (5×) of an EC20 concentration of ACh agonist was added to the cells, and the response of the cells was measured for 125 seconds. […]

[3] = M2 cell-based functional assay, calcium flux

| SMILES | Emax at 30 µM [1] | EC50 [1, 3] | Emax at 30 µM [2] | EC50 [2] | Human M2 EC50 [1, 3] |
| --- | --- | --- | --- | --- | --- |
| [2H]C1([2H])Oc2ccc(O[C@H]3CCN(c4nc5c(cc4C)C(=O)NC5)[C@H](C)C3)cc2OC1([2H])[2H] [Compound 4, 2-((2R,4S)-4-((2,3-dihydrobenzo[b][1,4]dioxin-6-yl-2,2,3,3-d4)oxy)-2-methylpiperidin-1-yl)-3-methyl-6,7-dihydro-5H-pyrrolo[3,4-b]pyridin-5-one] | 57% | 5870 nM | 85% | 11 nM | – |
| [2H]C1([2H])Oc2ccc(OC3CCN(c4nc5c(cc4C)C(=O)N(C)C5)CC3)cc2OC1([2H])[2H] [Compound 5, 2-(4-((2,3-dihydrobenzo[b][1,4]dioxin-6-yl-2,2,3,3-d4)oxy)piperidin-1-yl)-3,6-dimethyl-6,7-dihydro-5H-pyrrolo[3,4-b]pyridin-5-one] | 70% | 219 nM | 76% | 4 nM | – |
| [2H]C1([2H])Oc2ccc(OC3CCN(c4nc5c(cc4C)C(=O)N(C4CC4)C5)CC3)cc2OC1([2H])[2H] [Compound 6, 6-cyclopropyl-2-(4-((2,3-dihydrobenzo[b][1,4]dioxin-6-yl-2,2,3,3-d4)oxy)piperidin-1-yl)-3-methyl-6,7-dihydro-5H-pyrrolo[3,4-b]pyridin-5-one] | 64% | 867 nM | 78% | 9 nM | – |
| [2H]C1([2H])Oc2ccc(OC3CCN(c4nc5c(cc4C)C(=O)N(C4CCCC4)C5)CC3)cc2OC1([2H])[2H] [Compound 7, 6-cyclopentyl-2-(4-((2,3-dihydrobenzo[b][1,4]dioxin-6-yl-2,2,3,3-d4)oxy)piperidin-1-yl)-3-methyl-6,7-dihydro-5H-pyrrolo[3,4-b]pyridin-5-one] | 53% | 3750 nM | 76% | 65 nM | – |
| [2H]C1([2H])Oc2ccc(OC3CCN(c4nc5c(cc4C)C(=O)OC5C)CC3)cc2OC1([2H])[2H] (centres unmarked) [Compound 9, 2-(4-((2,3-dihydrobenzo[b][1,4]dioxin-6-yl-2,2,3,3-d4)oxy)piperidin-1-yl)-3,7-dimethylfuro[3,4-b]pyridin-5(7H)-one] | 57% | 2240 nM | 91% | 27 nM | – |
| [2H]C1([2H])CC(Oc2ccc3c(c2)OCCO3)CC([2H])([2H])N1c1nc2c(cc1C)C(=O)NC2 [Compound 11, 2-(4-((2,3-dihydrobenzo[b][1,4]dioxin-6-yl)oxy)piperidin-1-yl-2,2,6,6-d4)-3-methyl-6,7-dihydro-5H-pyrrolo[3,4-b]pyridin-5-one] | 60% | 508 nM | 73% | 5 nM | – |
| [2H]C1([2H])Oc2ccc(OC3CCN(c4nc5c(c(C)c4C)C(=O)N(C)C5)CC3)cc2OC1([2H])[2H] [Compound 12, 2-(4-((2,3-dihydrobenzo[b][1,4]dioxin-6-yl-2,2,3,3-d4)oxy)piperidin-1-yl)-3,4,6-trimethyl-6,7-dihydro-5H-pyrrolo[3,4-b]pyridin-5-one] | 54% | 2380 nM | 103% | 7 nM | – |
| [2H]C1([2H])Oc2ccc(OC3CCN(c4nc5c(c(C)c4C)C(=O)NC5)CC3)cc2OC1([2H])[2H] [Compound 13, 2-(4-((2,3-dihydrobenzo[b][1,4]dioxin-6-yl-2,2,3,3-d4)oxy)piperidin-1-yl)-3,4-dimethyl-6,7-dihydro-5H-pyrrolo[3,4-b]pyridin-5-one] | – | – | 101% | 4 nM | inactive |

These reach a lower EC50 [2]. Values come first.

| Emax at 30 µM [1] | EC50 [1, 3] | Emax at 30 µM [2] | EC50 [2] | Human M2 EC50 [1, 3] | SMILES |
| --- | --- | --- | --- | --- | --- |
| 69% | 346 nM | 108% | 3 nM | – | [2H]C1(Oc2ccc3c(c2)OC([2H])([2H])C([2H])([2H])O3)CCN(c2nc3c(cc2C)C(=O)NC3)CC1 [Compound 1, 2-(4-((2,3-dihydrobenzo[b][1,4]dioxin-6-yl-2,2,3,3-d4)oxy)piperidin-1-yl-4-d)-3-methyl-6,7-dihydro-5H-pyrrolo[3,4-b]pyridin-5-one] |
| 57% | 567 nM | 91% | 3 nM | – | [2H]C1([2H])CC(Oc2ccc3c(c2)OC([2H])([2H])C([2H])([2H])O3)CC([2H])([2H])N1c1nc2c(cc1C)C(=O)NC2 [Compound 2, 2-(4-((2,3-dihydrobenzo[b][1,4]dioxin-6-yl-2,2,3,3-d4)oxy)piperidin-1-yl-2,2,6,6-d4)-3-methyl-6,7-dihydro-5H-pyrrolo[3,4-b]pyridin-5-one] |
| 56% | 494 nM | 104% | 3 nM | – | [2H]C1([2H])Oc2ccc(OC3CCN(c4nc5c(cc4C)C(=O)OC5)CC3)cc2OC1([2H])[2H] [Compound 8, 2-(4-((2,3-dihydrobenzo[b][1,4]dioxin-6-yl-2,2,3,3-d4)oxy)piperidin-1-yl)-3-methylfuro[3,4-b]pyridin-5(7H)-one] |
| 60% | 330 nM | 93% | 3 nM | – | [2H]C1(Oc2ccc3c(c2)OCCO3)CCN(c2nc3c(cc2C)C(=O)NC3)CC1 [Compound 10, 2-(4-((2,3-dihydrobenzo[b][1,4]dioxin-6-yl)oxy)piperidin-1-yl-4-d)-3-methyl-6,7-dihydro-5H-pyrrolo[3,4-b]pyridin-5-one] |

From US12552790B2, “Positive modulators of the muscarinic acetylcholine receptor M4” (Vanderbilt University, priority 2023, dated 2026)
